The numbers were not newly measured in patent US8450455B2, “cRGD peptide derivative and its manufacture, and implant having a coating containing a cRGD peptide derivative” (Biotronik AG, priority 2010, dated 2013), which cites them from elsewhere.

For data set [1] the following is noted: 1-octanol/water, 25° C.
A further data set addresses integrin ανβ3 (Homo sapiens, UniProt P05106+P06756). The following applies: integrin expressed by tumor cells.

Sequence of integrin ανβ3 (P06756 31-889 limits assumed): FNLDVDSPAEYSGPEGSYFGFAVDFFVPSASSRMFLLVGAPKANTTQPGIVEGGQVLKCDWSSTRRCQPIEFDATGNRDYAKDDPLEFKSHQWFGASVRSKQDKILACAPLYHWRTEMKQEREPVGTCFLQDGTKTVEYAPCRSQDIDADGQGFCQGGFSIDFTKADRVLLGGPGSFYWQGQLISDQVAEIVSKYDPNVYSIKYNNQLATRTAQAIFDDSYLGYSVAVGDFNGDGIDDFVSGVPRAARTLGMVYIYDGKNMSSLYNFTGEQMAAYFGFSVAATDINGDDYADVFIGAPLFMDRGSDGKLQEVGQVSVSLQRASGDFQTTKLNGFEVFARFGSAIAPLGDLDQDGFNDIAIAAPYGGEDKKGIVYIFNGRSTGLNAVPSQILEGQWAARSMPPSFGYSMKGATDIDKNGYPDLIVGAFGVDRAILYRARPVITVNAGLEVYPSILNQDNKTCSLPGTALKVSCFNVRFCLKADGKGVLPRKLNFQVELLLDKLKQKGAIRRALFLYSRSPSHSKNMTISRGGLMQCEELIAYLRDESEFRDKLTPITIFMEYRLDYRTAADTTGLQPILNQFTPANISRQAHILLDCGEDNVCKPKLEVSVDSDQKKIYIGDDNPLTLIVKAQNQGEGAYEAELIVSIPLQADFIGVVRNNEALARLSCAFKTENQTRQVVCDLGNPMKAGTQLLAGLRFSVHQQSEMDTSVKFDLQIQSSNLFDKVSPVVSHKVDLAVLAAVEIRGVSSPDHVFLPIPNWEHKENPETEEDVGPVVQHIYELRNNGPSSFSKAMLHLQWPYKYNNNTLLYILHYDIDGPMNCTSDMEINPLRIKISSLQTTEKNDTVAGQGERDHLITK
Sequence of integrin ανβ3 (P06756 891-1048 partner limits assumed): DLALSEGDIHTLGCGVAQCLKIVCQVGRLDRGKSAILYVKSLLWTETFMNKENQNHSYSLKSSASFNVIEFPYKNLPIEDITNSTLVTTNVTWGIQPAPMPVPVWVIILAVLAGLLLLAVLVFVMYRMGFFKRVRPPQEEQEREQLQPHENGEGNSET
Sequence of integrin ανβ3 (P05106 27-788): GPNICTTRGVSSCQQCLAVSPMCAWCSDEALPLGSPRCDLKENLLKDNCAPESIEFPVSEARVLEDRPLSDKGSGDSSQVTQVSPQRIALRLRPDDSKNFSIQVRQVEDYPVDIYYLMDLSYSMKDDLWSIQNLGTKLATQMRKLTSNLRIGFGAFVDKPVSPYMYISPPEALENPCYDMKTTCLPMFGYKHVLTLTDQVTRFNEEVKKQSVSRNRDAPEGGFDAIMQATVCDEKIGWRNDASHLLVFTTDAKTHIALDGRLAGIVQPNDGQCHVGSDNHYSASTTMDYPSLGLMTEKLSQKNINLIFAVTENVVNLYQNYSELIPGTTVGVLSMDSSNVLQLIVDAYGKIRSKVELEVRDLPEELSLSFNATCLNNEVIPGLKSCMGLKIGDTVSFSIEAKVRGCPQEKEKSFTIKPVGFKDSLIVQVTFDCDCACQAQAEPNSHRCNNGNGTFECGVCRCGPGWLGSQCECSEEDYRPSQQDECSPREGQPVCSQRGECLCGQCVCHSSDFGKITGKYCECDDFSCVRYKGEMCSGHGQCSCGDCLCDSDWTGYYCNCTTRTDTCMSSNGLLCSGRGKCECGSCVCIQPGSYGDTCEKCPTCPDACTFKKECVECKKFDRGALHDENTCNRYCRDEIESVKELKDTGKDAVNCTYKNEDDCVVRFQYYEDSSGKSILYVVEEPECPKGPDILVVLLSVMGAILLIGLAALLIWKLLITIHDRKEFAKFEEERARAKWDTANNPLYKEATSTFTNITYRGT

As to `CCCCCCCN` [1-aminoheptane], the lipophilicity (logP) (as a rule, a log measure of how a compound divides between an organic and an aqueous phase) in data set [1] is reported as 2.57.

In the case of c(RGDfV), the “inhibition of integrin ανβ3” value at integrin ανβ3 was “well-inhibited”.
